Converted amounts (≈) assume the structure as drawn.
Tests used:
Leishmania donovani = assay: Assay 1 intramacrophage Leishmania donovani assay (potency readout); assay type: cell-based; settings: amastigotes in PMA-treated THP-1 macrophages, 96 h, average number of amastigotes per cell, minimum threshold 4.3, read-out: pEC50 value against Leishmania donovani (converted)
Procedure: The intramacrophage Leishmania assay was performed using a modified version of the method described in De Rycker et al. (Antimicrob Agents Chemother. 2013 July; 57(7):2913-22. Comparison of a high-throughput high-content intracellular Leishmania donovani assay with an axenic amastigote assay. De Rycker M, Hallyburton I, Thomas J, Campbell L, Wyllie S, Joshi D, Cameron S, Gilbert I H, Wyatt P G, Frearson J A, Fairlamb A H, Gray D W.). Procedure: 350 nl of compound was pre-dispensed into 384 well sterile intermediary plates. For single point screening, amphotericin B was added to all wells of column 24 as a positive control (final concentration 2 μM) and DMSO to column 23. For potency determinations, ten-point, one in three dilution curves were created with the highest concentration being 50 μM and on each plate a control curve of amphotericin B was included. Controls were as follows: columns 11 and 12: DMSO, columns 23 and 24: amphotericin B (final concentration 2 μM). To the intermediary plates, 35 μl of THP-1 media was added and plates were shaken for >5 min to ensure complete mixing. THP-1 cells (8,000 per well, 50 μl) were plated into black clear-bottom 384 well plates (Corning) in presence of 20 nM PMA. After 20 min at RT, the plates were incubated at 37° C. under 5% CO2 in a humidified incubator for 75 h. The cells were then washed with […] sterile phosphate buffered saline (PBS) supplemented with 1 mM CaCl2, 0.5 mM MgCl2, 0.1% (w/v) bovine serum albumin (PBS-A) and amastigotes were added to all wells at a multiplicity of infection of 5 (40,000 amastigotes per well). After 40 min at RT, plates were returned to the incubator. Amastigotes were incubated in the presence of THP-1 macrophages for 16 h. Any remaining extracellular amastigotes were subsequently removed with an overflow wash of 1 mL PBS-A per well (wash buffer is being aspirated from the top of the well as it is being dispensed) followed by addition of 25 μl of the compound pre-dilutions using a Fluidx Ipette-pro pipetting station. The final dilution of each compound was 200-fold. Plates were incubated for 96 h and then washed (250 μl PBS-A) and fixed (4% (v/v) formaldehyde-PBS, 30 min, RT). After fixation, the wells were washed with 250 μl PBS, stained (10 μg/mL DAPI, 0.4 μg mL-1 HCS Cellmask Deep Red in PBS+0.1% (v/v) Triton X-100, 30 min, RT) and washed with 250 μl PBS. Finally, PBS+0.05% (v/v) thimerosal was added to the wells, the plates were sealed and imaged on a high-content microscope (GE IN Cell 2000) using a 10× objective. Image analysis was carried out with GE IN Cell Analyzer 1000 Workstation using the “Multi Target Analysis” module. Settings for segmentation were as follows: nuclei: minimum area: 142.384 μm2, sensitivity: 81, method: top-hat; cells: characteristic area: 2500 μm2, sensitivity: 60, method: multiscale top-hat; organelles (amastigotes): granule size 1-3, 3 scales, sensitivity: 90, detection in entire cell. For each well, i) THP-1 cell count (cytotoxicity readout) and ii) average number of amastigotes per cell (potency readout) were calculated, both in terms of pEC50 values.

[1] = Assay 4 solubility assay, ChemiLuminescent Nitrogen Detection (CLND); assay type: physicochemical; settings: phosphate buffered saline, pH 7.4, aqueous buffer, kinetic from dmso stock, pH 7.4 PBS, from 10 mM DMSO stock, 1 h at room temperature
Procedure: A 10 mM DMSO stock solution of the compound was prepared. Solvents and Buffers Organic solvents of HPLC grade were used. Ultra pure water (Milli-Q grade) was used. Buffers were prepared with ultra pure water and filtered using 0.45μ cameo filters. Aqueous Buffer Solution: Phosphate Buffer Saline (PBS) @ pH 7.4 was prepared from Sigma dry powder packs, P-3813. Each one was diluted to 1 liter with deionised water. The pH was checked before the solution was used II. Procedures. • a) DMSO concentration was measured. DMSO blanks and ondansetron and caffeine standards were added to the plate (column 12, A, B, C, & D for the blanks and E, F, G, & H for the standards). Plates were covered with foil. When the UV and CLND detectors baselines appeared to be stable, the CLND was zeroed. • b) Once DMSO concentration measurements were complete, a filtration plate was prepared from each parent plate by diluting 5 μl of the 10 mM DMSO stock solution to […] with pH7.4 PBS. • c) After the plates were prepared, they were covered with a plate lid and left to incubate for 1 h at room temperature. • d) Sample was filtered using MILLIPORE MultiScreen Solubility (MSSLBPC10) Filtration Plates, to NUNC V well plates. The filter plate was removed and the NUNC plate was sealed with a power seal plate seal. • e) HPLC/CLND instruments were set up and left to equilibrate. Mobile phases (MeOH:H2O 1:1, flow rate: 0.2 ml/min, sensitivity z10, Gain High). The samples were run. • f) The assay curve fit was done by linear regression and solubility values were reported in μM.

Trypanosoma brucei = assay: Assay 3 Trypanosoma brucei cell growth inhibition assay; assay type: cell-based; settings: T. b. brucei BSF427, 69 h + 4 h resazurin, maximum threshold 8.0, read-out: pEC50 value against Trypanosoma brucei (converted)
Procedure: Measurement of the ability of the compounds to inhibit trypanosome (T. b. brucei, BSF427, VSG118) cell growth was performed using a modification of the cell viability assay previously described by Raz et al. (Raz B.; Iten M.; Grether-Buhler Y.; Kaminski R.; Brun R. The Alamar Blue assay to determine drug sensitivity of African trypanosomes (T. b. rhodesiense and T. b. gambiense) in vitro. Acta Trop. 1997, 68, 139-147). Compounds were dissolved in DMSO at a top concentration of 10 mM and serially diluted in half log steps to achieve a range of final assay concentrations of 50 μM to 0.5 nM. Compound at each concentration (200-fold final) was added to clear 96-well tissue culture plates in a volume of 1 μL. Then 2000 cells per well in relevant growth medium (HMI-9T for T. brucei, a modification of HMI-9 as described by Hurumi et al. (Hirumi H.; Hirumi K. Continuous cultivation of Trypanosoma brucei blood stream forms in a medium containing a low concentration of serum-protein without feeder cell-layers. J. Parasitol. 1989, 75, 985-989.) where 0.2 mM 2-mercaptoethanol was replaced with 0.056 mM thiolglycerol, and MEM with 10% FBS for MRC5) were then added to columns 1-11 of the plates in a volume of 199 μL. To column 12, 200 μL of medium was added to provide a no cells control. Plates were then incubated at 37° C. in an atmosphere of 5% CO2 for 69 h, before the addition of 20 μL of 500 μM rezasurin solution, and a further incubation period of 4 h. Plates were then read on a BioTek flx800 fluorescent plate reader, and percentage inhibition was compared to the maximum and minimum assay controls. Concentration effect curves were fitted using nonlinear regression using XLFit 4.2 and EC50 values determined.

Trypanosoma cruzi = assay: Assay 6 Trypanosoma cruzi intracellular assay (infected H9C2 cells); assay type: cell-based; settings: H9c2, in Rattus norvegicus, 72 h, infected H9C2 rat cardiomyocytes, read-out: pEC50 value against Trypanosoma cruzi (converted)
Procedure: Compounds were dispensed into black 384-well assay plates (Greiner) by acoustic dispensing (LabCyte ECHO). For potency determinations, eleven-point, one in three dilution curves were generated, with a top concentration of 50 μM. H9C2 rat cardiomyocytes cells were dispensed in T225 tissue culture flasks and after 4 hours they were infected during 18 hours with T. cruzi trypomastigotes in the same T225 tissue culture flasks at a multiplicity of infection of 1. Next, any remaining free trypomastigotes were washed away with PBS and the infected H9C2 cells were harvested by trypsinisation. The infected H9C2 cells were then plated into 384-well plates containing the compounds to be tested, at 2500 cells per well in DMEM media with 2% FBS, 1% Penicillin/Streptomocin, 2 mM L-Glutamine, 1 mM Na Pyruvate and 25 mM HEPES. After 72 h incubation at 37° C. in presence of 5% CO2, the plates were fixed and stained with 4% formaldehyde and 2 μM Draq5 for 3 hours at room temperature. The plates were imaged on a Perkin Elmer Opera high-content imaging system using a 20× air objective. Images were analysed using the Acapella building blocks system (Perkin Elmer). The image analysis algorithm first identified the H9C2 nuclei followed by demarcation of the cytoplasm and identification of intracellular amastigotes. This algorithm reported mean number of parasites per H9C2 cell, the percentage of infected H9C2 cells and the total number of H9C2 cells.

[2] = Assay 5 Leishmania donovani intracellular assay, cytotoxicity against THP-1 cells; assay type: cell-based; settings: human, total number of THP-1 cells, minimum threshold 4.3, read-out: cytotoxicity against THP-1 cells, pEC50 value (converted)
Procedure: Compounds were dispensed into black 384-well assay plates (Greiner) by acoustic dispensing (LabCyte ECHO). For potency determinations, eleven-point, one in three dilution curves were generated, with a top concentration of 50 μM. THP-1 human monocytes cells were dispensed in T225 tissue culture flasks and differentiated using 30 nM of PMA, after 24 hours they were infected overnight using Leishmania donovani expressing Green Fluorescent Protein (eGFP) amastigotes in the same T225 tissue culture flasks at a multiplicity of infection of 10. Next, any remaining free amastigotes were washed away with PBS and the infected THP-1 cells were harvested by trypsinisation. The infected cells were then plated into 384-well plates containing the compounds to be tested, at 3000 cells per well in RPMI media with 2% FBS and 25 mM Sodium bicarbonate. After 96 h incubation at 37° C. in presence of 5% CO2, the plates were fixed with 4% formaldehyde for 30 minutes, washed with PBS and stained with 0.1 mg/mL of DAPI for 30 minutes and washed again with PBS. The plates were imaged on a Perkin Elmer Opera high-content imaging system using a 20× air objective with two expositions, one for DAPI stain and other for eGFP. Images were analysed using the Acapella building blocks system (Perkin Elmer). The image analysis algorithm first identified the THP-1 nuclei followed by demarcation of the cytoplasm and identification of intracellular amastigotes. This algorithm reported mean number of parasites per THP-1 cell, the percentage of infected THP-1 cells and the total number of THP-1 cells.

Row | Compound | EC50 (Leishmania donovani) | solubility at 1 h [1] | EC50 (Trypanosoma brucei) | EC50 (Trypanosoma cruzi) | EC50 at 96 h [2]
1 | CN(C)c1ccc(-c2cnc3nc(-c4cc(NC(=O)N5CCCC5)ccc4F)cn3n2)cn1 [Example 16, N-(3-(2-(6-(dimethyl-amino)pyridin-3-yl)imidazo[1,2-b][1,2,4]triazin-6-yl)-4-fluorophenyl)pyrrolidine-1-carboxamide] | > 50.1 µM | 1 to 6 µM (≈ 0.446 to 2.68 µg/mL) | ≥ 20 µM | 0.00501 to 0.631 µM | –
2 | CN(C)Cc1ccc(-c2cnc3nc(-c4cc(NC(=O)N5CCCC5)ccc4F)cn3n2)cc1 [Example 37, N-(3-(2-(4-((dimethyl-amino)methyl)phenyl)imidazo[1,2-b][1,2,4]triazin-6-yl)-4-fluoro-phenyl)pyrrolidine-1-carboxamide] | – | 10 to 83 µM (≈ 4.6 to 38.1 µg/mL) | – | 0.00501 to 0.631 µM | 2.51 to 10 µM
3 | O=C(Nc1ccc(F)c(-c2cn3nc(-c4ccc(CCN5CCOCC5)cc4)cnc3n2)c1)N1CCCC1 [Example 39, N-(4-fluoro-3-(2-(4-(2-morpholinoethyl)phenyl)imidazo[1,2-b][1,2,4]triazin-6-yl)phenyl) pyrrolidine-1-carboxamide] | > 50.1 µM | – | ≥ 20 µM | 0.00501 to 0.631 µM | –
4 | CN(C)Cc1cccc(-c2cnc3nc(-c4cc(NC(=O)N5CCCC5)ccc4F)cn3n2)c1 [Example 41, N-(3-(2-(3-((dimethyl-amino)methyl)phenyl)imidazo[1,2-b][1,2,4]triazin-6-yl)-4-fluorophenyl)pyrrolidine-1-carboxamide] | – | 100 to 416 µM (≈ 46 to 191 µg/mL) | – | 0.00501 to 0.631 µM | 2.51 to 10 µM
5 | CNCc1cccc(-c2cnc3nc(-c4cc(NC(=O)N5CCCC5)ccc4F)cn3n2)c1 [Example 44, N-(4-fluoro-3-(2-(3-((methylamino)methyl)phenyl)imidazo[1,2-b] [1,2,4]triazin-6-yl)phenyl) pyrrolidine-1-carboxamide] | – | 100 to 416 µM (≈ 44.6 to 185 µg/mL) | – | 0.00501 to 0.631 µM | 2.51 to 10 µM

Now from value to compound, other results behind:

Row | EC50 (Leishmania donovani) | solubility at 1 h [1] | EC50 (Trypanosoma brucei) | Compound | EC50 (Trypanosoma cruzi) | EC50 at 96 h [2]
6 | > 50.1 µM | – | ≥ 20 µM | CN(C)S(=O)(=O)Nc1ccc(F)c(-c2cn3nc(N4CCOCC4)cnc3n2)c1 [Example 32, N-(4-fluoro-3-(2-morpholinoimidazo [1,2-b][1,2,4]triazin-6-yl)phenyl)-N′-dimethylsulfamide] | 10 to 39.8 µM | –
7 | – | 10 to 83 µM (≈ 4 to 33.2 µg/mL) | – | CC(C)OC(=O)Nc1ccc(F)c(-c2cn3nc(N4CCOCC4)cnc3n2)c1 [Example 48, isopropyl (4-fluoro-3-(2-morpholinoimidazo[1,2-b] [1,2,4]triazin-6-yl)phenyl)carbamate] | 0.00501 to 0.631 µM | 2.51 to 10 µM
8 | > 50.1 µM | – | ≥ 20 µM | Cc1noc(C)c1S(=O)(=O)Nc1ccc(F)c(-c2cn3nc(N4CCOCC4)cnc3n2)c1 [Example 53, N-(4-fluoro-3-(2-morpholinoimidazo[1,2-b] [1,2,4]triazin-6-yl)phenyl)-3,5-dimethyl-isoxazole-4-sulfonamide] | 10 to 39.8 µM | –

— US10065965B2, “Imidazo[1,2-B][1,2,4]triazine derivatives as antiparasitic agents” (GlaxoSmithKline Intellectual Property Development Limited, priority 2015, dated 2018)
